Experimental data taken from ChEMBL document CHEMBL1909046, “DrugMatrix in vitro pharmacology data”.

Key:
[1] = target: T1, Angiotensin-converting enzyme (Oryctolagus cuniculus, UniProt P12822); assay type: tissue-based, Lung;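 also: enzymatic inhibition of angiotensin-converting enzyme measured with FAPGG as the substrate; in other assays of this panel Not Active means under 50% inhibition at 10 µM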
T1 sequence (P12822 whole entry): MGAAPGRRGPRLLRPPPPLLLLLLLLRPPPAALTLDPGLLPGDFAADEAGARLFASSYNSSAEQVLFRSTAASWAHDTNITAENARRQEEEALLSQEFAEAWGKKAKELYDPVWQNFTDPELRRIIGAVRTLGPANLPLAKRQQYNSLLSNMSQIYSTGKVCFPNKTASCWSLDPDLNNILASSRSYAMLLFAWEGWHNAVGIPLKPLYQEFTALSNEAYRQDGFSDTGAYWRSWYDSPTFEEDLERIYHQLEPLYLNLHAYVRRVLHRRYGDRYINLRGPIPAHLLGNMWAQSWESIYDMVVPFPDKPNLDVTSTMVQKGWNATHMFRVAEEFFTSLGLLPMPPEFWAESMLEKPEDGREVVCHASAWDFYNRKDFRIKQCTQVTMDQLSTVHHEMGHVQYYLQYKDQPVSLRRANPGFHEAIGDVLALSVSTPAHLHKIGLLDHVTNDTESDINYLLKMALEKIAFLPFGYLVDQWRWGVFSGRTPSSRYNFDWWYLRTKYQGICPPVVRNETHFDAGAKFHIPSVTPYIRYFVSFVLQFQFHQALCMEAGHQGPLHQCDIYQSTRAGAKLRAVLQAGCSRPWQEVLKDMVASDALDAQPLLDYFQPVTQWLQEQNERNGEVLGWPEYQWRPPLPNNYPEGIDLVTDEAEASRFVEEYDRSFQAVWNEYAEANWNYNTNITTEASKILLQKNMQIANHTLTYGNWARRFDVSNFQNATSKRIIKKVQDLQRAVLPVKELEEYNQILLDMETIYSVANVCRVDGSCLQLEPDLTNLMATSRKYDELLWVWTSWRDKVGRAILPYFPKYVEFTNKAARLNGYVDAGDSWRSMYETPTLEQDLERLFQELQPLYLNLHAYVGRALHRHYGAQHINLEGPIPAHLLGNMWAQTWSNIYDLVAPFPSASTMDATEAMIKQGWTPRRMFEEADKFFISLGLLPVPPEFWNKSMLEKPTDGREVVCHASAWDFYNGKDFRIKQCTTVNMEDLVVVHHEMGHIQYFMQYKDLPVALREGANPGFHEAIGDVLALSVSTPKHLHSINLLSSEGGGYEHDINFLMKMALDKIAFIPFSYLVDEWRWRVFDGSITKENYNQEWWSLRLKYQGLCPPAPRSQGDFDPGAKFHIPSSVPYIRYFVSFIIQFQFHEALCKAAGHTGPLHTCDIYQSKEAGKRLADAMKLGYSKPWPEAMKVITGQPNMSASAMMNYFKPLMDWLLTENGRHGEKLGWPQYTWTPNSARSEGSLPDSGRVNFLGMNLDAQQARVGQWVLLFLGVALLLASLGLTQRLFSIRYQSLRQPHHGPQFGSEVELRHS

[2] = target: Mitogen-activated protein kinase 3 (Homo sapiens, UniProt P27361); test: DRUGMATRIX: Protein Serine/Threonine Kinase, ERK1 enzyme inhibition (substrate: Myelin Basic Protein); parameters: species or system Escherichia coli; conditions: Not Active = under 50% inhibition at 10 µM
Mitogen-activated protein kinase 3, sequence (P27361 whole entry): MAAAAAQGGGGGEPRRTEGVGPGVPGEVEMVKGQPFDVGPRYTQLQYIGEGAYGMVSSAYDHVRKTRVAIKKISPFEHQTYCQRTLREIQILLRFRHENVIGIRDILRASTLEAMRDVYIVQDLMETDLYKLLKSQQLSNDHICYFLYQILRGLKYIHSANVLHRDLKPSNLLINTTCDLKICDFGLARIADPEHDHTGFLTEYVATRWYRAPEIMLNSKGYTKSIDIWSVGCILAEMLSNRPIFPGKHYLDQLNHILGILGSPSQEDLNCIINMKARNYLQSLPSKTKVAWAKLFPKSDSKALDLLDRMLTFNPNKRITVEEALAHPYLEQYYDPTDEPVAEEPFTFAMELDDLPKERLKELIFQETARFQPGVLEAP

Estrogen receptor beta = Estrogen receptor beta (Homo sapiens, UniProt Q92731); conditions: sf9; also: in other assays of this panel Not Active means under 50% inhibition at 10 µM
Estrogen receptor beta, sequence (Q92731 whole entry): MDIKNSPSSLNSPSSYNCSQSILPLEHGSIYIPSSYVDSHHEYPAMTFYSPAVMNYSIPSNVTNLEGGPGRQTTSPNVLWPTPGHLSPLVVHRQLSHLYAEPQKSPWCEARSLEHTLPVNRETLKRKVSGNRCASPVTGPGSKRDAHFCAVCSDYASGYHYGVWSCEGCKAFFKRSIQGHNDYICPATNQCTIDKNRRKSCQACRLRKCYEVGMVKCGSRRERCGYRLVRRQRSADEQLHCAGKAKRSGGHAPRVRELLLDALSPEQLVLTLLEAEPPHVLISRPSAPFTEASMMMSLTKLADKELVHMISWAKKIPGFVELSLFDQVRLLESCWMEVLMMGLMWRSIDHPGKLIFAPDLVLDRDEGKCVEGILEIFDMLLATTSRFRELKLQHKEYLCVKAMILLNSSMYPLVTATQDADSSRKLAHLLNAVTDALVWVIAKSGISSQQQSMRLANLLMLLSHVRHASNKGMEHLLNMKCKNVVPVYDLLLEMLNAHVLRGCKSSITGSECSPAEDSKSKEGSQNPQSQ

[3] = target: 5-hydroxytryptamine receptor 4 (Cavia porcellus, UniProt O70528); assay type: cell membranes, Dunkin-Hartley, Striatum, Membrane; also: in other assays of this panel Not Active means under 50% inhibition at 10 µM
5-hydroxytryptamine receptor 4, sequence (O70528 whole entry): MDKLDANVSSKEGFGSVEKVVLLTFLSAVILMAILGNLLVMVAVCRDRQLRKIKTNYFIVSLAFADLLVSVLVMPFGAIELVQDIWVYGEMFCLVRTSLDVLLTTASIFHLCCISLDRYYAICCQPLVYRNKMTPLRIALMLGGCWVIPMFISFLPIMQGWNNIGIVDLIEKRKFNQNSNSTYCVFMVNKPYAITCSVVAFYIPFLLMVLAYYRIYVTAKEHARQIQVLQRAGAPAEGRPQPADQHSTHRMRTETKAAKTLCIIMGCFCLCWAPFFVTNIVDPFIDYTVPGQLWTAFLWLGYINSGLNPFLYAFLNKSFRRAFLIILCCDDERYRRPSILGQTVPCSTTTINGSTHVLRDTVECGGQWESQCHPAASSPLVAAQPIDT

[4] = target: Platelet-activating factor receptor (Homo sapiens, UniProt P25105); assay type: tissue-based; also: in other assays of this panel Not Active means under 50% inhibition at 10 µM
Platelet-activating factor receptor, sequence (P25105 whole entry): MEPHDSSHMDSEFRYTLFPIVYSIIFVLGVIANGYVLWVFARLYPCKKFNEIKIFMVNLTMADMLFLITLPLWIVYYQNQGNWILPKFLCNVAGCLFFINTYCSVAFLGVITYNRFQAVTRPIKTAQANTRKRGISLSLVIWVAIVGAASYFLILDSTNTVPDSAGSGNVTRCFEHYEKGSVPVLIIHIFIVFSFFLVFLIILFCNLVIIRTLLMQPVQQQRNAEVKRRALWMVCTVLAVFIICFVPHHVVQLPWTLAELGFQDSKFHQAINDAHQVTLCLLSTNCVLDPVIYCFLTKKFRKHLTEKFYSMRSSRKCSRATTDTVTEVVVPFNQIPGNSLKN

Acetylcholinesterase = Acetylcholinesterase (Homo sapiens, UniProt P22303); test: DRUGMATRIX: Acetylcholinesterase enzyme inhibition (substrate: acetylthiocholine); assay type: cell-based, HEK293; conditions: hek293; Not Active = under 50% inhibition at 10 µM
Acetylcholinesterase, sequence (P22303 whole entry): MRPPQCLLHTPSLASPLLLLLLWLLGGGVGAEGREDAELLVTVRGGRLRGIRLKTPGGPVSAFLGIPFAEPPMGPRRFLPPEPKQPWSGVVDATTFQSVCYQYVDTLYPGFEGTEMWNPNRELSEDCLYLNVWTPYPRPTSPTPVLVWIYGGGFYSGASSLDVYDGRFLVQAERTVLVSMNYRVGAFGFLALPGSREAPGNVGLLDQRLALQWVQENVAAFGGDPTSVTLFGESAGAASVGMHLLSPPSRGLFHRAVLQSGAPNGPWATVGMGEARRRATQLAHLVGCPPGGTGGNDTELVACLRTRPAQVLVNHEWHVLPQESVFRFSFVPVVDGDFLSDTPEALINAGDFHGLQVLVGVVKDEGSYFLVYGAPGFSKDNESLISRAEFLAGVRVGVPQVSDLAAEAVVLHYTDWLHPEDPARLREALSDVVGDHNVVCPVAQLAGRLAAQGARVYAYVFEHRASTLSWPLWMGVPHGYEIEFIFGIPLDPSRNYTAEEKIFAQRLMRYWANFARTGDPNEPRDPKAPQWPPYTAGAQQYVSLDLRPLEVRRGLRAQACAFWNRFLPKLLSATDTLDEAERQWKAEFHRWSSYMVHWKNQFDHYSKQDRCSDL

[5] = target: T2, Nitric oxide synthase, inducible (Mus musculus, UniProt P29477); parameters: species or system Escherichia coli
T2 sequence (P29477 whole entry): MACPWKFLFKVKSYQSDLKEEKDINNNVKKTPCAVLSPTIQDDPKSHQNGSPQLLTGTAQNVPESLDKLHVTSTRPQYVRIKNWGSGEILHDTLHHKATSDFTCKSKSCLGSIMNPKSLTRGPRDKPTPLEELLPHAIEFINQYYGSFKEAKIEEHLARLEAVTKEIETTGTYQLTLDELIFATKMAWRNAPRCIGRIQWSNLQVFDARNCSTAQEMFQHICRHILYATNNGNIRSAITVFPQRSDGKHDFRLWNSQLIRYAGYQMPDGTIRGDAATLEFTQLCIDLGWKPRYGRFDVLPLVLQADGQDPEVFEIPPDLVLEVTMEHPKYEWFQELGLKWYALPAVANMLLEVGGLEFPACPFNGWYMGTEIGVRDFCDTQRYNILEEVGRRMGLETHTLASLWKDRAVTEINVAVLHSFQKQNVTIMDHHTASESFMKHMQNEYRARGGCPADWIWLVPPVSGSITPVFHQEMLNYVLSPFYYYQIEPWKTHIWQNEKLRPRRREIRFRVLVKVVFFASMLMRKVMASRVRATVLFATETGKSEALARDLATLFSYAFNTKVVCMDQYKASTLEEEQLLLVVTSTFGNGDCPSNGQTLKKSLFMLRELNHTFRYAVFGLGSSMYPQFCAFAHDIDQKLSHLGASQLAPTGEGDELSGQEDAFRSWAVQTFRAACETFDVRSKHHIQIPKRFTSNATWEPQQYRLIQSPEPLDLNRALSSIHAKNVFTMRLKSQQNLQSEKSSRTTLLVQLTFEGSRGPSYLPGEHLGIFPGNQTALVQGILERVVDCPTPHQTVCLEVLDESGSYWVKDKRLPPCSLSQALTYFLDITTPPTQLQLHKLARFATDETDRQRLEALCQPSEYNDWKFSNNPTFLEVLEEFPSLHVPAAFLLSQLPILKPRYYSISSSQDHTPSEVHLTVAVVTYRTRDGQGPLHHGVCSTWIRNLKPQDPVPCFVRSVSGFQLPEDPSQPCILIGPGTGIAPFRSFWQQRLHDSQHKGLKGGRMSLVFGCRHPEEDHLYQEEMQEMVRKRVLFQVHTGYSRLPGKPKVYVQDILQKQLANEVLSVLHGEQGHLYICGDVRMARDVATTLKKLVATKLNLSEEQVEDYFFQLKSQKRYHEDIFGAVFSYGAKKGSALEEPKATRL

Leukotriene C4 synthase = target: T3, Leukotriene C4 synthase (Cavia porcellus, UniProt A6XA80); assay type: tissue-based, Lung
T3 sequence (A6XA80 whole entry): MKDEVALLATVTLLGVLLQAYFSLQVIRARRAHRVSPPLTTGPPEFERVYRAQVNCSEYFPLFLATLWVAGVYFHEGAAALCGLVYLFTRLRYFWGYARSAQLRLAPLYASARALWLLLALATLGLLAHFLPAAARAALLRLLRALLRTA

Oc1ccc2c3c1O[C@H]1[C@@H](O)CC[C@@]4(O)[C@@H](C2)N(CC2CCC2)CC[C@]314 [NALBUPHINE]
Not Active: IC50 [1] | IC50 [2] | IC50 (Estrogen receptor beta) | IC50 [3] | IC50 [4] | IC50 (Acetylcholinesterase) | IC50 [5] | IC50 (Leukotriene C4 synthase)

C[C@]12C=CC(=O)C=C1CC[C@@H]1[C@@H]2C(=O)C[C@@]2(C)[C@H]1CC[C@]2(O)C(=O)CO [PREDNISONE]
Not Active: IC50 [1] | IC50 [2] | IC50 (Estrogen receptor beta) | IC50 [3] | IC50 [4] | IC50 (Acetylcholinesterase) | IC50 [5] | IC50 (Leukotriene C4 synthase)

OCCOCCN1CCN(C2=Nc3ccccc3Sc3ccccc32)CC1 [QUETIAPINE]
Not Active: IC50 [1] | IC50 [2] | IC50 (Estrogen receptor beta) | IC50 [3] | IC50 [4] | IC50 (Acetylcholinesterase) | IC50 [5] | IC50 (Leukotriene C4 synthase)

CC1CCC(NC(=O)N(CCCl)N=O)CC1 (configuration not stated) [SEMUSTINE]
Not Active: IC50 [1] | IC50 [2] | IC50 (Estrogen receptor beta) | IC50 [3] | IC50 [4] | IC50 (Acetylcholinesterase) | IC50 [5] | IC50 (Leukotriene C4 synthase)

C[N+](C)(C)CCOC(=O)CCC(=O)OCC[N+](C)(C)C.[Cl-].[Cl-] [SUCCINYLCHOLINE CHLORIDE]
Not Active: IC50 [1] | IC50 [2] | IC50 (Estrogen receptor beta) | IC50 [3] | IC50 [4] | IC50 (Acetylcholinesterase) | IC50 [5] | IC50 (Leukotriene C4 synthase)

Nc1ccc(S(=O)(=O)NC(=O)c2ccccc2)cc1 [SULFABENZAMIDE]
Not Active: IC50 [1] | IC50 [2] | IC50 (Estrogen receptor beta) | IC50 [3] | IC50 [4] | IC50 (Acetylcholinesterase) | IC50 [5] | IC50 (Leukotriene C4 synthase)

CCCCCCCCNC(C)C(O)c1ccc(SC(C)C)cc1 (configuration not stated) [SULOCTIDIL]
Not Active: IC50 [1] | IC50 [2] | IC50 (Estrogen receptor beta) | IC50 [3] | IC50 [4] | IC50 (Acetylcholinesterase) | IC50 [5] | IC50 (Leukotriene C4 synthase)

O=c1[nH]c(=O)n(C2CCCO2)cc1F (configuration not stated) [TEGAFUR]
Not Active: IC50 [1] | IC50 [2] | IC50 (Estrogen receptor beta) | IC50 [3] | IC50 [4] | IC50 (Acetylcholinesterase) | IC50 [5] | IC50 (Leukotriene C4 synthase)

CC(=N)S [THIOACETAMIDE]
Not Active: IC50 [1] | IC50 [2] | IC50 (Estrogen receptor beta) | IC50 [3] | IC50 [4] | IC50 (Acetylcholinesterase) | IC50 [5] | IC50 (Leukotriene C4 synthase)

Cc1ccc(C(=O)c2ccc(CC(=O)O)n2C)cc1 [TOLMETIN]
Not Active: IC50 [1] | IC50 [2] | IC50 (Estrogen receptor beta) | IC50 [3] | IC50 [4] | IC50 (Acetylcholinesterase) | IC50 [5] | IC50 (Leukotriene C4 synthase)

CC(=O)OCC(COC(C)=O)OC(C)=O [TRIACETIN]
Not Active: IC50 [1] | IC50 [2] | IC50 (Estrogen receptor beta) | IC50 [3] | IC50 [4] | IC50 (Acetylcholinesterase) | IC50 [5] | IC50 (Leukotriene C4 synthase)

CN1CCN(CCCN2c3ccccc3Sc3ccc(C(F)(F)F)cc32)CC1 [TRIFLUOPERAZINE]
Not Active: IC50 [1] | IC50 [2] | IC50 (Estrogen receptor beta) | IC50 [3] | IC50 [4] | IC50 (Acetylcholinesterase) | IC50 [5] | IC50 (Leukotriene C4 synthase)

TRANSPLATIN
Not Active: IC50 [1] | Ki [1] | IC50 [2] | Ki [2] | IC50 (Estrogen receptor beta) | Ki (Estrogen receptor beta) | IC50 [3] | Ki [3] | IC50 [4] | Ki [4] | IC50 (Acetylcholinesterase) | Ki (Acetylcholinesterase) | IC50 [5] | Ki [5] | IC50 (Leukotriene C4 synthase) | Ki (Leukotriene C4 synthase)
